From patent EP4722213A1, “NITROGEN-CONTAINING FUNCTIONAL GROUP-SUBSTITUTED PYRIDAZINOPYRIDONE DERIVATIVE AND USE THEREOF” (Sichuan Huiyu Pharmaceutical Co., Ltd., priority 2023, dated 2024)

Molecular target: T1, SOS1 (Homo sapiens, UniProt Q07889)
T1 sequence (Q07889 1-1333): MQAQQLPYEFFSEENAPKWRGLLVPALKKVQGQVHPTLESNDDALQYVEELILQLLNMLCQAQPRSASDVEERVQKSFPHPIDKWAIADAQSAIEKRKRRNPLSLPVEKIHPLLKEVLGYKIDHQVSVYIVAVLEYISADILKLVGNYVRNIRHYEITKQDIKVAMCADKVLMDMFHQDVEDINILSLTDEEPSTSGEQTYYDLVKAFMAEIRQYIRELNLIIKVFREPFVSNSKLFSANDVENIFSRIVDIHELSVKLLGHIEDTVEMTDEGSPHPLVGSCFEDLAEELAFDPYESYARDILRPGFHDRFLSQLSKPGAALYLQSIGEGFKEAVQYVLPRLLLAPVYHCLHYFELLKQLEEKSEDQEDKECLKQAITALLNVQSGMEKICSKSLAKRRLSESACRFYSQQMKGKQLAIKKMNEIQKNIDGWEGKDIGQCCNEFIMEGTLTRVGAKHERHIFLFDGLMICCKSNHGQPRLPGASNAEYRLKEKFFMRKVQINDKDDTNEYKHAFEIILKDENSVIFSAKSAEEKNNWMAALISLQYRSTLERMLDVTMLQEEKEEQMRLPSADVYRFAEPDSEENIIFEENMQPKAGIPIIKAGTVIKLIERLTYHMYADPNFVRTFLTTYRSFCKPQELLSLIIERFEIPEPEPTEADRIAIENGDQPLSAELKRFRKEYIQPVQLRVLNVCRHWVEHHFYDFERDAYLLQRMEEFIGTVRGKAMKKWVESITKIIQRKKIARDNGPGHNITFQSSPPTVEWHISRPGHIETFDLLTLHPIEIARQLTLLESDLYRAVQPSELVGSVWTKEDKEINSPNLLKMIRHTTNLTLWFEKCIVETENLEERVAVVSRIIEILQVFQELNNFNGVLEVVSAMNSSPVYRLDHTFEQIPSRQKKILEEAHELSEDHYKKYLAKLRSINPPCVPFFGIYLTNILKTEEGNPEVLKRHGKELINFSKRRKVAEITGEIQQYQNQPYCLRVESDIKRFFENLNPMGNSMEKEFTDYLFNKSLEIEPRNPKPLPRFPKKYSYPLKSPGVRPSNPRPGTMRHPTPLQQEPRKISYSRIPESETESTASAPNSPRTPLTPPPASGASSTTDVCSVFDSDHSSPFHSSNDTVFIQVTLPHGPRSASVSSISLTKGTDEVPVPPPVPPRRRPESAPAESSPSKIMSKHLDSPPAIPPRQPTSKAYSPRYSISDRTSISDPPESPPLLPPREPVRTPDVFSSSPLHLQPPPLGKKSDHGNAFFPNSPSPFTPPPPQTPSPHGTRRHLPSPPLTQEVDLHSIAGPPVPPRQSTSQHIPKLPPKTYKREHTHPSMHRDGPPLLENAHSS
Assay: biochemical

Structure (SMILES)	IC50 [nM]
Cc1c(C#N)cccc1[C@@H](C)Nc1nnc(N2CC3CC3C2)c2cc(=O)n(C3CC3)cc12 (stereo partly drawn) [Example 35, 3-((1R)-1-((1-(3-azabicyclo[3.1.0]hexan-3-yl)-6-cyclopropyl-7-oxo-6,7-dihydropyrido[3,4-d]pyridazin-4-yl)amino)ethyl)-2-methylbenzonitrile]	14.8
Cc1c(C#N)cccc1[C@@H](C)Nc1nnc(N2CCC2)c2cc(=O)n(C3CC3)cc12 [Example 36, (R)-3-(1-((1-(azetidin-1-yl)-6-cyclopropyl-7-oxo-6,7-dihydropyrido[3,4-d]pyridazin-4-yl)amino)ethyl)-2-methylbenzonitrile]	10.7
Cc1c(C#N)cccc1[C@@H](C)Nc1nnc(N2CCCC2)c2cc(=O)n(C3CC3)cc12 [Example 37, (R)-3-(1-((6-cyclopropyl-7-oxo-1-(pyrrolidin-1-yl)-6,7-dihydropyrido[3,4-d]pyridazin-4-yl)amino)ethyl)-2-methylbenzonitrile]	9.2
Cc1c(C#N)cccc1[C@@H](C)Nc1nnc(N(C)C)c2cc(=O)n(C3CC3)cc12 [Example 39, (R)-3-(1-((6-cyclopropyl-1-(dimethylamino)-7-oxo-6,7-dihydropyrido[3,4-d]pyridazin-4-yl)amino)ethyl)-2-methylbenzonitrile]	23.8
CCN(CC)c1nnc(N[C@H](C)c2cccc(C#N)c2C)c2cn(C3CC3)c(=O)cc12 [Example 40, (R)-3-(1-((6-cyclopropyl-1-(diethylamino)-7-oxo-6,7-dihydropyrido[3,4-d]pyridazin-4-yl)amino)ethyl)-2-methylbenzonitrile]	32.5
Cc1c(C#N)cccc1[C@@H](C)Nc1nnc(N2CC(F)(F)C2)c2cc(=O)n(C3CC3)cc12 [Example 41, (R)-3-(1-((6-cyclopropyl-1-(3,3-difluoroazetidin-1-yl)-7-oxo-6,7-dihydropyrido[3,4-d]pyridazin-4-yl)amino)ethyl)-2-methylbenzonitrile]	57.9
Cc1c(C#N)cccc1[C@@H](C)Nc1nnc(N2CCC(F)(F)C2)c2cc(=O)n(C3CC3)cc12 [Example 42, (R)-3-(1-((6-cyclopropyl-1-(3,3-difluoropyrrolidin-1-yl)-7-oxo-6,7-dihydropyrido[3,4-d]pyridazin-4-yl)amino)ethyl)-2-methylbenzonitrile]	51.3
Cc1c(C#N)cccc1[C@@H](C)Nc1nnc(N2CCC(F)(F)CC2)c2cc(=O)n(C3CC3)cc12 [Example 43, (R)-3-(1-((6-cyclopropyl-1-(4,4-difluoropiperidin-1-yl)-7-oxo-6,7-dihydropyrido[3,4-d]pyridazin-4-yl)amino)ethyl)-2-methylbenzonitrile]	84.2
Cc1c(C#N)cccc1[C@@H](C)Nc1nnc(N2CCS(=O)(=O)CC2)c2cc(=O)n(C3CC3)cc12 [Example 44, (R)-3-(1-((6-cyclopropyl-1-(1,1-dioxidothiomorpholino)-7-oxo-6,7-dihydropyrido[3,4-d]pyridazin-4-yl)amino)ethyl)-2-methylbenzonitrile]	44.2
Cc1c(C#N)cccc1[C@@H](C)Nc1nnc(N2CCCC2)c2cc(=O)n(C3(C)CC3)cc12 [Example 45, (R)-2-methyl-3-(1-((6-(1-methylcyclopropyl)-7-oxo-1-(pyrrolidin-1-yl)-6,7-dihydropyrido[3,4-d]pyridazin-4-yl)amino)ethyl)benz onitrile]	6.2
Cc1c(C#N)cccc1[C@@H](C)Nc1nnc(N2CC3CC3C2)c2cc(=O)n(C3(C)CC3)cc12 (stereo partly drawn) [Example 46, 3-((1R)-1-((1-(3-azabicyclo[3.1.0]hexan-3-yl)-6-(1-methylcyclopropyl)-7-oxo-6,7-dihydropyrido[3,4-d]pyridazin-4-yl)amino)ethyl)-2-methylbenzonitrile]	9.3
Cc1c(C#N)cccc1[C@@H](C)Nc1nnc(N2CCC(F)(F)CC2)c2cc(=O)n(C3(C)CC3)cc12 [Example 47, (R)-3-(1-((1-(4,4-difluoropiperidin-1-yl)-6-(1-methylcyclopropyl)-7-oxo-6,7-dihydropyrido[3,4-d]pyridazin-4-yl)amino)ethyl)-2-methylbenzonitrile]	66.2
Cc1c(C#N)cccc1[C@@H](C)Nc1nnc(N2CC(F)(F)C2)c2cc(=O)n(C3(C)CC3)cc12 [Example 48, (R)-3-(1-((1-(3,3-difluoroazetidin-1-yl)-6-(1-methylcyclopropyl)-7-oxo-6,7-dihydropyrido[3,4-d]pyridazin-4-yl)amino)ethyl)-2-methylbenzonitrile]	46.5
Cc1c([C@@H](C)Nc2nnc(N(C)C)c3cc(=O)n(C4CC4)cc23)cccc1C(F)(F)F [Example 51, (R)-6-cyclopropyl-1-(dimethylamino)-4-((1-(2-methyl-3-(trifluoromethyl)phenyl)ethyl)amino)pyr ido[3,4-d]pyridazin-7(6H)-one]	11.8
CCN(CC)c1nnc(N[C@H](C)c2cccc(C(F)(F)F)c2C)c2cn(C3CC3)c(=O)cc12 [Example 53, (R)-6-cyclopropyl-1-(diethylamino)-4-((1-(2-methyl-3-(trifluoromethyl)phenyl)ethyl)amino)pyr ido[3,4-d]pyridazin-7(6H)-one]	24.7
Cc1c([C@@H](C)Nc2nnc(N3CC(F)(F)C3)c3cc(=O)n(C4CC4)cc23)cccc1C(F)(F)F [Example 54, (R)-6-cyclopropyl-1-(3,3-difluoroazetidin-1-yl)-4-((1-(2-methyl-3-(trifluoromethyl)phenyl)ethyl)amino)pyr ido[3,4-d]pyridazin-7(6H)-one]	50.3
Cc1c([C@@H](C)Nc2nnc(N3CCC(F)(F)C3)c3cc(=O)n(C4CC4)cc23)cccc1C(F)(F)F [Example 55, (R)-6-cyclopropyl-1-(3,3-difluoropyrrolidin-1-yl)-4-((1-(2-methyl-3-(trifluoromethyl)phenyl)ethyl)amino)pyr ido[3,4-d]pyridazin-7(6H)-one]	49.2
Cc1c([C@@H](C)Nc2nnc(N3CC4CC4C3)c3cc(=O)n(C4CC4)cc23)cccc1C(F)(F)F (stereo partly drawn) [Example 56, 1-(3-azabicyclo[3.1.0]hexan-3-yl)-6-cyclopropyl-4-(((R)-1-(2-methyl-3-(trifluoromethyl)phenyl)ethyl)amino)pyr ido[3,4-d]pyridazin-7(6H)-one]	10.6
Cc1c([C@@H](C)Nc2nnc(N3CCSC3)c3cc(=O)n(C4CC4)cc23)cccc1C(F)(F)F [Example 57, (R)-6-cyclopropyl-4-((1-(2-methyl-3-(trifluoromethyl)phenyl)ethyl)amino)-1-(thiazolidin-3-yl)pyrido[3,4-d]pyridazin-7(6H)-one]	25.6
Cc1c([C@@H](C)Nc2nnc(N3CCC(F)(F)CC3)c3cc(=O)n(C4CC4)cc23)cccc1C(F)(F)F [Example 58, (R)-6-cyclopropyl-1-(4,4-difluoropiperidin-1-yl)-4-((1-(2-methyl-3-(trifluoromethyl)phenyl)ethyl)amino)pyr ido[3,4-d]pyridazin-7(6H)-one]	100
Cc1c([C@@H](C)Nc2nnc(N3CCS(=O)(=O)CC3)c3cc(=O)n(C4CC4)cc23)cccc1C(F)(F)F [Example 59, (R)-6-cyclopropyl-1-(1,1-dioxidothiomorpholino)-4-((1-(2-methyl-3-(trifluoromethyl)phenyl)ethyl)amino)pyr ido[3,4-d]pyridazin-7(6H)-one]	27.4
CCN(CC)c1nnc(N[C@H](C)c2cccc(C(F)(F)F)c2C)c2cn(C3(C)CC3)c(=O)cc12 [Example 60, (R)-1-(diethylamino)-4-((1-(2-methyl-3-(trifluoromethyl)phenyl)ethyl)amino)-6-(1-methylcyclopropyl) pyrido[3,4-d]pyridazin-7(6H)-one]	20.9
Cc1c([C@@H](C)Nc2nnc(N3CC4CC4C3)c3cc(=O)n(C4(C)CC4)cc23)cccc1C(F)(F)F (stereo partly drawn) [Example 62, 1-(3-azabicyclo[3.1.0]hexan-3-yl)-4-(((R)-1-(2-methyl-3-(trifluoromethyl)phenyl)ethyl)amino)-6-(1-methylcyclopropyl) pyrido[3,4-d]pyridazin-7(6H)-one]	9.4
Cc1c([C@@H](C)Nc2nnc(N3CCC[C@H]3C)c3cc(=O)n(C4(C)CC4)cc23)cccc1C(F)(F)F [Example 63, 4-(((R)-1-(2-methyl-3-(trifluoromethyl)phenyl)ethyl)amino)-6-(1-methylcyclopropyl)-1-((R)-2-methylpyrrolidin-1-yl)pyrido[3,4-d]pyridazin-7(6H)-one]	7.8
